Experimental data from patent publication US9029384B2, “Phosphatidylinositol 3-kinase inhibitors” (Gilead Calistoga LLC, priority 2012, dated 2015).

Assays:
basophils = experiment: Basophil activation in human whole blood (Flow2 CAST kit, CD63 positive cells); format: cell-based; conditions: basophils activated with anti-FcεRI mAb or fMLP, geometric mean
Experimental: Effect on basophil activation was measured in human whole blood using the Flow2 CAST® kit (Buhlmann Laboratories AG, Baselstrasse, Switzerland) following the protocol provided by the manufacturer with minor modifications. Human whole blood was collected into K2-EDTA venipuncture tubes. Whole blood samples were treated with either DMSO (0.3% final) or a serial dilution of compounds in DMSO for 60 minutes at 37° C. Basophils were then activated either with anti-FcεRI mAb or with fMLP. To activate basophils using the anti-FcεRI mAb; 50 μl of whole blood was mixed with 110 μl of stimulation buffer (B-BAT-STB) and 20 μl of anti-FcεRI (B-BAT-STCON). To activate basophils with fMLP; 50 μl of whole blood was mixed with 80 μl of stimulation buffer (B-BAT-STB) and 50 μl of fMLP (B-CCR-FMLP). Stimulation buffer was used as a negative control. 20 μl of the staining reagent (combination of anti-human CD63-FITC and anti-human CCR3-PE mAbs) was then added to each tube. […] Subsequently, erythrocytes were lysed and fixed by the addition of 2 ml of lysing solution (B-BAT-LYR) for 10 min at room temperature. Cells were pelleted by centrifugation at 1200 rpm for 10 min at room temperature in a swing-out rotor. Supernatant was aspirated and cell pellet resuspended in 400 μl of wash buffer. Flow cytometric analysis of the basophil activation was performed on a FC500MPL flow cytometer (Beckman Coulter Inc., Fullerton, Calif.). CCR3-staining and side scatter were applied to gate at least 200 basophils that expressed a high density of CCR3. The percent CD63 positive cells within the gated basophil population were determined in different treatment groups and normalized to the vehicle control (0.3% DMSO) with anti-FcεRI mAb of fMLP stimulus as 100%. Final compound concentration was adjusted to correct for dilution effect of added reagents. The EC50 values were calculated from the analysis of the dose-response curves to a four-parameter equation. All EC50 values represent geometric mean values and are reported in units of nM.

PI3Kδ = target: T1, PI3Kδ (Homo sapiens, UniProt O00329); experiment: Enzymatic activity of PI3K isoforms, TR-FRET assay (PIP3 formation); format: biochemical; conditions: PI3Kδ; TR-FRET, 2×Km ATP, 10 μM PIP2; read-out: IC50
T1 construct: made in house
T1 sequence (O00329 whole entry, canonical isoform): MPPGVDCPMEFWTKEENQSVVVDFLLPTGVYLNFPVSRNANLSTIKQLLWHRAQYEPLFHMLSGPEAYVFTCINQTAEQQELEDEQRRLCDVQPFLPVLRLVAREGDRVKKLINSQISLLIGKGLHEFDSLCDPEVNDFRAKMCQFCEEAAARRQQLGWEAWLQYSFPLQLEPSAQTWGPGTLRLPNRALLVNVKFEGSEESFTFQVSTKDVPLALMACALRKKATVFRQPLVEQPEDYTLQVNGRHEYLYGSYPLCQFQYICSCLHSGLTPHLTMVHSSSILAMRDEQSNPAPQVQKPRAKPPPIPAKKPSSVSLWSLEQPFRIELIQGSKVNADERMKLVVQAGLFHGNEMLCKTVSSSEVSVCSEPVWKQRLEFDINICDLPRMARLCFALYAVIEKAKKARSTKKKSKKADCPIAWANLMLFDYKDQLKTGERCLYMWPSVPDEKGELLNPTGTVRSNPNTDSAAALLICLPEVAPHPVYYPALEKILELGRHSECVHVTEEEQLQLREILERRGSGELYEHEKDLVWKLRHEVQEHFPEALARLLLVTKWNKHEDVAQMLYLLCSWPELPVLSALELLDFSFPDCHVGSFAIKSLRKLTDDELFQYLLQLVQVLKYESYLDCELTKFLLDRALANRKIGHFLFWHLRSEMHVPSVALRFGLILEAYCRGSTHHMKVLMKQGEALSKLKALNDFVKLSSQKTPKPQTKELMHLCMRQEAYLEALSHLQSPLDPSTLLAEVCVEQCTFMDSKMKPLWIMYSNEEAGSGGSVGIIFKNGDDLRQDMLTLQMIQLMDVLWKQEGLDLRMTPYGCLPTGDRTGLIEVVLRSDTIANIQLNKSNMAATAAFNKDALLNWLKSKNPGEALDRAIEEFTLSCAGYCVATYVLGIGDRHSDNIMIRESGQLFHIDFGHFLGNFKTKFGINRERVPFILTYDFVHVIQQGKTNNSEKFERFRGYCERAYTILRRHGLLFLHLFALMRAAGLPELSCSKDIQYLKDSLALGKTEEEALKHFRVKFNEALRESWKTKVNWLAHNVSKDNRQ
T1 sequence (P27986 whole entry partner, canonical isoform): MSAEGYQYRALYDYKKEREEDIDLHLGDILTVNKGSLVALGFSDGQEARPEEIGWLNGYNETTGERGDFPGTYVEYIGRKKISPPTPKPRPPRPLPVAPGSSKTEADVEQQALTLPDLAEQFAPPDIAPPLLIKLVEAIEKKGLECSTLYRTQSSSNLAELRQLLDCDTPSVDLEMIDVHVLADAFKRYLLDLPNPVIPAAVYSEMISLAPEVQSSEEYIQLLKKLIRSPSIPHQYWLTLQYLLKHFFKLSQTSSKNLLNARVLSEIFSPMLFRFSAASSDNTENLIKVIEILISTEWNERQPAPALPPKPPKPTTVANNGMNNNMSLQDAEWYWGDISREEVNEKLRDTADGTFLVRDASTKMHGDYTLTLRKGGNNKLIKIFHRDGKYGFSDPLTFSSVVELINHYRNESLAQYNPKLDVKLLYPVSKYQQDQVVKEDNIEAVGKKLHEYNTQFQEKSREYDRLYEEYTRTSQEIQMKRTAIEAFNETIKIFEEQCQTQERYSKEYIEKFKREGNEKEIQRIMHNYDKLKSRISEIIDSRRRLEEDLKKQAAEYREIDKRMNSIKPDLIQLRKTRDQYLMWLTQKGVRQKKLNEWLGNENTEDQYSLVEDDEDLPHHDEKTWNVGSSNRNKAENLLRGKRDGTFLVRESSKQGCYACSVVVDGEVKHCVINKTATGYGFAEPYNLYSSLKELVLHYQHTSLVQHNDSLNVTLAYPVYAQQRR
Text: Enzymatic Activity of PI3K Isoforms
The TR-FRET assay was used to monitor formation of the product 3,4,5-inositol triphosphate molecule (PIP3) as it competed with fluorescently labeled PIP3 for binding to the GRP-1 pleckstrin homology domain protein. An increase in […] product results in a decrease in TR-FRET signal as the labeled fluorophore is displaced from the GRP-1 protein binding site.
Class I PI3K isoforms were expressed and purified as heterodimeric recombinant proteins. All assay reagents and buffers for the TR-FRET assay were purchased from Millipore. […] After an assay reaction time of 30 minutes at 25° C., reactions were terminated with a final concentration of 10 mM EDTA, 10 nM labeled-PIP3, and 35 nM Europium labeled GRP-1 detector protein before reading TR-FRET on an Envision plate reader (Ex: 340 nm; Em: 615/665 nm; 100 μs delay and 500 μs read window).
Data are normalized based on a positive (1 uM wortmanin) and negative (DMSO) controls. The α, β, δ, and γ IC50 values were calculated from the fit of the dose-response curves to a four-parameter equation. IC50 are reported in units of nM.
IC50 values were obtained for all PI3K isoforms (α, β, δ, and γ), and Table 2 summarizes the IC50 data collected for PI3Kδ in this Example B1.

| SMILES | EC50 (basophils; Homo sapiens) [nM] | IC50 (PI3Kδ) [nM] | EC50 (basophils) [nM] |
| --- | --- | --- | --- |
| CC(Nc1nc(N)nc(N)c1C#N)c1nc2cccc(Cl)c2c(=O)n1-c1cc(Cl)cc(C(F)F)c1 (single isomer, unassigned) [Compound 115a] | 10 to 50 | 1 to 10 | – |
| CC(Nc1nc(N)nc(N)c1C#N)c1nc2c(F)ccc(C#N)c2c(=O)n1-c1cc(F)cc(F)c1 (single isomer, unassigned) [Compound 125a] | 10 to 50 | 10 to 50 | – |
| COc1ccc(C)c(-n2c(C(C)Nc3nc(N)nc(N)c3C#N)nc3cccc(Cl)c3c2=O)c1 (single isomer, unassigned) [Compound 187a-2] | – | 1 to 10 | 1 to 10 |
| CC(Nc1nc(N)nc(N)c1C#N)c1nc2ccc(F)c(Cl)c2c(=O)n1-c1cc(F)cc(C(F)F)c1 (single isomer, unassigned) [Compound 141a] | 10 to 50 | 10 to 50 | – |
| CC(Nc1nc(N)nc(N)c1C#N)c1nc2cccc(Cl)c2c(=O)n1-c1cc(C(F)F)cc(C(F)F)c1 (single isomer, unassigned) [Compound 119a] | 10 to 50 | 1 to 10 | – |
| Cc1ccc(F)cc1-n1c(C(C)Nc2nc(N)nc(N)c2C#N)nc2cccc(Cl)c2c1=O (single isomer, unassigned) [Compound 201a-1] | < 1 | < 1 | – |
| CC(Nc1nc(N)nc(N)c1C#N)c1nc2cccc(S(C)(=O)=O)c2c(=O)n1-c1cccc(C(F)F)c1 (single isomer, unassigned) [Compound 116a] | > 50 | 1 to 10 | – |
| Cc1c(F)cccc1-n1c(C(C)Nc2nc(N)nc(N)c2C#N)nc2cccc(Cl)c2c1=O (single isomer, unassigned) [Compound 199a-2] | – | 1 to 10 | > 50 |
| Cc1c(F)cc(F)cc1-n1c(C(C)Nc2nc(N)nc(N)c2C#N)nc2cccc(Cl)c2c1=O (single isomer, unassigned) [Compound 200a-1] | – | 10 to 50 | 10 to 50 |
| Cc1ccc(F)c2nc(C(C)Nc3nc(N)nc(N)c3C#N)n(-c3ccccc3)c(=O)c12 (single isomer, unassigned) [Compound 60a] | < 1 | < 1 | – |
| CC(Nc1nc(N)nc(N)c1C#N)c1nc2c(C#N)cc(F)cc2c(=O)n1-c1cc(F)cc(F)c1 (single isomer, unassigned) [Compound 161a] | 10 to 50 | 10 to 50 | – |
| CC(Nc1nc(N)nc(N)c1C#N)c1nc2c(F)cccc2c(=O)n1-c1ccccc1 (single isomer, unassigned) [Compound 58a] | 1 to 10 | 1 to 10 | – |
| COc1ccc(C)c(-n2c(C(C)Nc3nc(N)nc(N)c3C#N)nc3cccc(Cl)c3c2=O)c1 (single isomer, unassigned) [Compound 187a-1] | – | 1 to 10 | 10 to 50 |
| COc1cccc2nc(C(C)Nc3nc(N)nc(N)c3C#N)n(-c3ccccc3)c(=O)c12 (single isomer, unassigned) [Compound 111a] | > 50 | 10 to 50 | – |
| CC(Nc1nc(N)nc(N)c1C#N)c1nc2cccc(O)c2c(=O)n1-c1ccccc1 (single isomer, unassigned) [Compound 2a] | 1 to 10 | < 1 | – |
| Cc1c(F)cccc1-n1c(C(C)Nc2nc(N)nc(N)c2C#N)nc2cccc(Cl)c2c1=O (single isomer, unassigned) [Compound 199a-1] | – | < 1 | < 1 |
| CC(Nc1nc(N)nc(N)c1C#N)c1nc2c(F)cc(F)cc2c(=O)n1-c1cc(F)cc(F)c1 (single isomer, unassigned) [Compound 70a] | 1 to 10 | 10 to 50 | – |
| Cc1ccc(C)c(-n2c(C(C)Nc3nc(N)nc(N)c3C#N)nc3cccc(Cl)c3c2=O)c1 (single isomer, unassigned) [Compound 191a-1] | – | 1 to 10 | 10 to 50 |
| Cc1cccc2c(=O)n(-c3cccc(Cl)c3)c(C(C)Nc3nc(N)nc(N)c3C#N)nc12 (single isomer, unassigned) [Compound 6a] | > 50 | < 1 | – |

| SMILES | EC50 (basophils; Homo sapiens) [nM] | IC50 (PI3Kδ) [nM] | EC50 (basophils) [nM] |
| --- | --- | --- | --- |
| Cc1c(C(F)F)cccc1-n1c(C(C)Nc2nc(N)nc(N)c2C#N)nc2cccc(Cl)c2c1=O (single isomer, unassigned) [Compound 189a-2] | – | < 1 | 1 to 10 |
| CC(C)C(Nc1nc(N)nc(N)c1C#N)c1nc2cccc(Cl)c2c(=O)n1-c1cc(F)cc(F)c1 (single isomer, unassigned) [Compound 198a] | 1 to 10 | 1 to 10 | – |
| CC(Nc1nc(N)nc(N)c1C#N)c1nc2c(F)ccc(F)c2c(=O)n1-c1cccc(F)c1 (single isomer, unassigned) [Compound 148a] | < 1 | 1 to 10 | – |
| Cc1c(F)ccc(-n2c(C(C)Nc3nc(N)nc(N)c3C#N)nc3cccc(Cl)c3c2=O)c1C (single isomer, unassigned) [Compound 203a-2] | – | > 50 | 10 to 50 |
| COc1cccc(-n2c(C(C)Nc3nc(N)nc(N)c3C#N)nc3cccc(Cl)c3c2=O)c1 (single isomer, unassigned) [Compound 206a] | – | < 1 | < 1 |
| COc1cc(F)cc(-n2c(C(C)Nc3nc(N)nc(N)c3C#N)nc3cccc(Cl)c3c2=O)c1 (single isomer, unassigned) [Compound 205a] | – | 1 to 10 | < 1 |
| CC(Nc1nc(N)nc(N)c1C#N)c1nc2cccc(Br)c2c(=O)n1-c1ccccc1 (single isomer, unassigned) [Compound 129a] | < 1 | < 1 | – |
| CC(Nc1nc(N)nc(N)c1C#N)c1nc2cccc(S(C)(=O)=O)c2c(=O)n1-c1cc(F)cc(F)c1 (single isomer, unassigned) [Compound 96a] | 10 to 50 | 1 to 10 | – |
| CC(Nc1nc(N)nc(N)c1F)c1nc2cccc(Cl)c2c(=O)n1-c1ccccc1 (single isomer, unassigned) [Compound 194a] | – | > 50 | > 50 |
| CC(Nc1nc(N)nc(N)c1C#N)c1nc2cccc(Cl)c2c(=O)n1-c1cc(C(F)F)cc(C(F)F)c1 (single isomer, unassigned) [Compound 137a] | – | 1 to 10 | 10 to 50 |
| CC(C)CC(Nc1nc(N)nc(N)c1C#N)c1nc2cccc(Cl)c2c(=O)n1-c1cccc(C#N)c1 (single isomer, unassigned) [Compound 167a] | > 50 | 10 to 50 | – |
| Cc1cccc2c(=O)n(-c3ccccc3)c(C(C)Nc3nc(N)nc(N)c3C#N)nc12 (single isomer, unassigned) [Compound 3a] | 10 to 50 | 1 to 10 | – |
| CC(Nc1nc(N)nc(N)c1Cl)c1nc2cccc(S(C)(=O)=O)c2c(=O)n1-c1cccc(F)c1 (single isomer, unassigned) [Compound 153a] | 10 to 50 | 1 to 10 | – |
| CC(Nc1nc(N)nc(N)c1C#N)c1nc2cccc(C#N)c2c(=O)n1-c1cccc(F)c1 (single isomer, unassigned) [Compound 131a] | 1 to 10 | 1 to 10 | – |
| CC(Nc1nc(N)nc(N)c1C#N)c1nc2cccc(S(C)(=O)=O)c2c(=O)n1-c1ccccc1 (single isomer, unassigned) [Compound 95a] | 10 to 50 | 1 to 10 | – |
| CC(Nc1nc(N)nc(N)c1C#N)c1nc2ccc(F)cc2c(=O)n1-c1cccc(Cl)c1 (single isomer, unassigned) [Compound 14a] | 1 to 10 | 1 to 10 | – |
| CC(Nc1nc(N)nc(N)c1C#N)c1nc2cccc(S(C)(=O)=O)c2c(=O)n1-c1ccccc1F (single isomer, unassigned) [Compound 142a-2] | – | 1 to 10 | 10 to 50 |
| CC(Nc1nc(N)nc(N)c1C#N)c1nc2cccc(F)c2c(=O)n1-c1ccccc1 (single isomer, unassigned) [Compound 81a] | < 1 | 1 to 10 | – |
| CC(Nc1nc(N)nc(N)c1C#N)c1nc2c(F)ccc(C#N)c2c(=O)n1-c1ccccc1 (single isomer, unassigned) [Compound 124a] | 1 to 10 | 1 to 10 | – |
